System: monoclonal F40-11G6 antibody (anti-PCB monoclonal antibody)
Assay: 1 ppm PCB immunoassay (competitive ELISA), cross-reactivity of compounds found at PCB sites or of similar structure
Format: binding, Balb/c mice
Conditions: for PERCENT CROSS-REACTIVITY: calculated percent cross-reactivity in the 1 ppm PCB immunoassay; for CONCENTRATION GIVING A POSITIVE RESULT; SOIL EQUIVALENT / CON[…] A POSITIVE RESULT; SOIL EQUIVALENT: positive compared to the kit standard (AROCLOR 1248, 0.7 ppm) in the 1 ppm PCB immunoassay
Method: The immunoassay of the present invention is performed according to the following procedure. Monoclonal anti-PCB antibody is immobilized in an assay vessel, or other solid support, preferably to the bottom of a polystyrene tube, at a concentration, of from 0.005 to 20 μg/tube, preferably 0.1 to 0.4 μg/tube. The concentration and affinity of the antibody for the sample molecules and reporter reagent molecules directly influences the overall sensitivity of the final method.
Antibody coated tubes were prepared by passively coating polystyrene (12×75 mm, NUNC) tubes with the monoclonal F40-11G6 antibody diluted in PBS and incubating overnight.
10 g of a soil sample were placed in an extraction vial containing 20 mL of methanol and 5 steel pellets (6mm) and the vial and its contents shaken for 1 minute to disperse the soil particles and extract the PCB. The sample was then filtered to clarify the sample using a filter of glass fiber and 0.45μ Teflon. 45 uL of the clarified filtrate sample was mixed with 955 μl of 10 mM PBS (pH=7.4) and the resulting mixture added to lyophilized enzyme conjugate reagent (0.3 μg) and mixed. At the same time, 2×45 uL of the AROCLOR 1248 standard are similarly treated. The sample and the two standards were then poured into three identical antibody coated tubes, respectively, and the resulting solution mixed. The resulting solution was incubated for 10 minutes at ambient temperature and then washed 4× with a wash buffer (detergent-saline solution). 250 uL of tetramethylbenzidene solution (KP Laboratories, Cat. No. 50-76-02) was added along with 250 uL of hydrogen peroxide solution (KPL, Cat. No. 50-65-02) and the resultant solution mixed. After incubating for 2.5 minutes the color development reaction was stopped with 250 uL of stop solution (1M sulfuric acid).
The optical density (OD) of the test sample was compared to the OD of the AROCLOR 1248 standard (0.7 ppm) which was tested simultaneously with the sample. If the sample OD is less than the standard OD, the sample contains greater than 1 ppm PCBs. If the sample OD is greater than the standard OD, the sample contains less than 1 ppm PCBs. Other concentration ranges can be assessed by diluting the test samples with suitable diluents, as long as they are non-reactive with the components of the assay.
These compounds were tested for their reactivity with the present 1 ppm PCB immunoassay. […] Overall, the compounds were each less than 1% cross-reactive, with one exception at 2%, indicating high-specificity for PCBs in the present method.

Row | Molecule | PERCENT CROSS-REACTIVITY [%] | CONCENTRATION GIVING A POSITIVE RESULT; SOIL EQUIVALENT | CON[…] A POSITIVE RESULT; SOIL EQUIVALENT
1 | O=C(O)COc1ccc(Cl)cc1Cl [2,4-D] | < 0.1 | 1,000-10,000 PPM | –
2 | Clc1ccc(Cl)c(Cl)c1 [1,2,4-TRICHLOROBENZENE] | < 1 | 100-1,000 PPM | –
3 | COC(=O)c1cc(Oc2ccc(Cl)cc2Cl)ccc1[N+](=O)[O-] [BIFENOX] | < 1 | 100-1,000 PPM | –
4 | Clc1cccc2ccccc12 [1-CHLORONAPHTHALENE] | < 0.01 | > 10,000 PPM | –
5 | c1ccc2ccccc2c1 [NAPHTHALENE] | < 0.01 | > 10,000 PPM | –
6 | ClC=C(Cl)Cl [TRICHLOROETHYLENE] | < 0.01 | > 10,000 PPM | –
7 | c1ccccc1 [BENZENE] | < 0.01 | – | > 10,000 PPM
8 | XYLENES | < 0.01 | > 10,000 PPM | –
9 | Clc1c(Cl)c(Cl)c(Cl)c(Cl)c1Cl [HEXACHLOROBENZENE] | < 0.01 | > 10,000 PPM | –
10 | O=S(=O)(c1ccc(Cl)cc1)c1cc(Cl)c(Cl)cc1Cl [TETRADIFON] | < 10 | 10-100 PPM | –
11 | Clc1cc(Cl)c(-c2ccc(-c3ccccc3)cc2)c(Cl)c1 [2,4,6-TRICHLOR-p-TERPHENYL] | < 0.01 | > 10,000 PPM | –
12 | O=S(=O)(Oc1ccc(Cl)cc1Cl)c1ccccc1 [2,4-DICHLOROPHENYL BENZENESULFONATE] | < 1 | 100-1,000 PPM | –
13 | Clc1cc(Cl)c(Cl)c(Cl)c1Cl [PENTACHLOROBENZENE] | < 0.01 | > 10,000 PPM | –
14 | Clc1ccc(C(c2ccccc2Cl)C(Cl)(Cl)Cl)cc1 (centres unmarked) [O,P-DDT] | < 0.01 | > 10,000 PPM | –
15 | ClCCl [METHYLENE CHLORIDE] | < 0.01 | – | > 10,000 PPM
16 | Oc1c(Cl)cc(Cl)c2ccccc12 [2,4-DICHLORO-1-NAPTHOL] | 2 | 50 PPM | –
17 | Oc1c(Cl)c(Cl)c(Cl)c(Cl)c1Cl [PENTACHLOROPHENOL] | < 0.01 | > 10,000 PPM | –
18 | Clc1c2ccccc2c(Cl)c2ccccc12 [9,10-DICHLOROANTHRACENE, 9,10-DICHLORO-ANTHRACENE] | < 0.01 | > 10,000 PPM | –
19 | CC(Oc1cc(Cl)c(Cl)cc1Cl)C(=O)O (centres unmarked) [SILVEX] | < 1 | 100-1,000 PPM | –

— patent publication US5858692A, “Polychlorinated biphenyls (PCB) immunoassay method, its components and a kit for use in performing the same” (ENSYS, Inc., priority 1995, dated 1999)
